pIC50: −log10 of the molar value. Calls of active or inactive are those of the source. The calls are words filed in the database; no cut-off is given here.
Key:
[1] = test system: RAW264.7; assay: Cytotoxicity activity mouse RAW264.7 cells assessed as effect on cell viability at 25 uM incubated for 24 hrs by MTT assay; format: toxicity, cell-based; details: raw264.7, 24 h
[2] = test system: Mus musculus; assay: Antiinflammatory activity in LPS-induced acute lung injury BALB/c mouse model assessed as downregulation of TNF-alpha level in BALF at 20 mg/kg, po administered for 3 days followed by LPS-induction for 1 hr and measured after 6 hrs by ELISA analysis; format: functional, organism-based; details: time 79.0 hrs
[3] = test system: RAW264.7; assay: Anti-inflammatory activity in mouse RAW264.7 cells assessed as inhibition of LPS-induced iNOS […] expression preincubated with compound for 1 hr followed by LPS stimulation and measured after 24 hrs by Western blot analysis; format: functional, cell-based; details: dose 6.25-25 µM, time 25.0 hrs
[4] = test system: Mus musculus; assay: Antiinflammatory activity in LPS-induced acute lung injury BALB/c mouse model assessed as downregulation of TNF-alpha level in BALF at 5 to 20 mg/kg, po administered for 3 days followed by LPS-induction for 1 hr and measured after 6 hrs by ELISA analysis; format: functional, organism-based; details: dose 5-20 mg/kg, time 79.0 hrs
[5] = test system: Mus musculus; assay: Antiinflammatory activity in LPS-induced po dosed acute lung injury BALB/c mouse model assessed as inhibition of COX-2 expression administered for 3 days followed by LPS-induction for 1 hr and measured after 6 hrs by Western blot analysis; format: functional, organism-based; details: dose 5-20 mg/kg, time 79.0 hrs
[6] = test system: Mus musculus; assay: Antiinflammatory activity in LPS-induced acute lung injury BALB/c mouse model assessed as reduction in NO production in BALF at 20 mg/kg, po administered for 3 days followed by LPS-induction for 1 hr and measured after 6 hrs by Griess reagent based analysis; format: functional, organism-based; details: time 79.0 hrs
[7] = test system: Mus musculus; assay: Antiinflammatory activity in LPS-induced po dosed acute lung injury BALB/c mouse model assessed as inhibition of iNOS expression administered for 3 days followed by LPS-induction for 1 hr and measured after 6 hrs by Western blot analysis; format: functional, organism-based; details: dose 5-20 mg/kg, time 79.0 hrs
[8] = test system: RAW264.7; assay: Antiinflammatory activity in mouse RAW264.7 cells assessed as inhibition of LPS-induced IL-6 release at 25 uM preincubated with compound for 1 hr followed by LPS-induction and measured after 24 hrs by ELISA analysis; format: functional, cell-based; details: time 25.0 hrs
[9] = test system: RAW264.7; assay: Antiinflammatory activity in mouse RAW264.7 cells assessed as reduction in LPS-induced p38 phosphorylation at 6.25 to 25 uM preincubated with compound for 1 hr followed by LPS-induction and measured after 24 hrs by Western blot analysis; format: functional, cell-based; details: dose 6.25-25 µM, time 25.0 hrs
[10] = target: Transcription factor p65 (Mus musculus) (UniProt Q04207); assay: Inhibition of NF-kappaB p65 phosphorylation in mouse RAW264.7 cells at 6.25 to 25 uM pretreated with compound for 1 hr followed by LPS-induction and measured after 24 hrs by Western blot analysis; format: cell-based; details: dose 6.25-25 µM, time 25.0 hrs
[11] = test system: RAW264.7; assay: Antiinflammatory activity in mouse RAW264.7 cells assessed as inhibition of LPS-induced IL-6 production at 25 uM preincubated with compound for 1 hr followed by LPS-induction and measured after 24 hrs by ELISA analysis relative to control; format: functional; details: time 25 hrs
[12] = test system: RAW264.7; assay: Inhibition of NF-kappaB signaling pathway in LPS-induced mouse RAW264.7 cells assessed as reduction in phosphorylated IkappaB to IkappaB relative expression at 6.25 to 25 uM pretreated with compound for 1 hr followed by LPS-induction and measured after 24 hrs by Western blot analysis; format: cell-based; details: dose 6.25-25 µM, time 25.0 hrs
[13] = test system: Mus musculus; assay: Antiinflammatory activity in LPS-induced acute lung injury BALB/c mouse model assessed as reduction in cell infiltration in lung at 20 mg/kg, po administered for 3 days followed by LPS-induction for 1 hr and measured after 6 hrs by H and E staining based analysis; format: functional, organism-based; details: time 79.0 hrs
[14] = test system: Mus musculus; assay: Antiinflammatory activity in LPS-induced acute lung injury BALB/c mouse model assessed as downregulation of IL-6 level in BALF at 5 to 20 mg/kg, po administered for 3 days followed by LPS-induction for 1 hr and measured after 6 hrs by ELISA analysis; format: functional, organism-based; details: dose 5-20 mg/kg, time 79.0 hrs
[15] = test system: RAW264.7; assay: Anti-inflammatory activity in mouse RAW264.7 cells assessed as inhibition of LPS-induced iNOS […] expression at 25 uM preincubated with compound for 1 hr followed by LPS stimulation and measured after 24 hrs by Western blot analysis; format: functional, cell-based; details: time 25.0 hrs
[16] = test system: RAW264.7; assay: Inhibition of IkappaB phosphorylation in mouse RAW264.7 cells at 6.25 to 25 uM pretreated with compound for 1 hr followed by LPS-induction and measured after 24 hrs by Western blot analysis; format: cell-based; details: dose 6.25-25 µM, time 25.0 hrs
[17] = test system: RAW264.7; assay: Antiinflammatory activity in mouse RAW264.7 cells assessed as inhibition of LPS-induced IL-6 secretion by measuring fold change at 25 uM preincubated with compound for 1 hr followed by LPS-induction and measured after 24 hrs by ELISA analysis relative to Forsythin; format: functional; details: time 25 hrs
[18] = test system: RAW264.7; assay: Antiinflammatory activity in mouse RAW264.7 cells assessed as reduction in LPS-induced IL-6 production preincubated with compound for 1 hr followed by LPS-induction and measured after 24 hrs by ELISA analysis relative to control; format: functional, cell-based
[19] = test system: Mus musculus; assay: Antiinflammatory activity in LPS-induced acute lung injury BALB/c mouse model assessed as downregulation of IL-6 level in BALF at 20 mg/kg, po administered for 3 days followed by LPS-induction for 1 hr and measured after 6 hrs by ELISA analysis; format: functional, organism-based; details: time 79.0 hrs
[20] = test system: RAW264.7; assay: Antiinflammatory activity in mouse RAW264.7 cells assessed as reduction in LPS-induced JNK phosphorylation at 6.25 to 25 uM preincubated with compound for 1 hr followed by LPS-induction and measured after 24 hrs by Western blot analysis; format: functional, cell-based; details: dose 6.25-25 µM, time 25.0 hrs
[21] = test system: RAW264.7; assay: Antiinflammatory activity in mouse RAW264.7 cells assessed as reduction in LPS-induced ERK phosphorylation at 6.25 to 25 uM preincubated with compound for 1 hr followed by LPS-induction and measured after 24 hrs by Western blot analysis; format: functional, cell-based; details: dose 6.25-25 µM, time 25.0 hrs
[22] = test system: RAW264.7; assay: Antiinflammatory activity in mouse RAW264.7 cells assessed as reduction in LPS-induced NO release preincubated with compound for 1 hr followed by LPS-induction and measured after 24 hrs by ELISA analysis relative to control; format: functional, cell-based
[23] = target: Transcription factor p65 (Mus musculus) (UniProt Q04207); assay: Inhibition of NF-kappaB signaling pathway in LPS-induced mouse RAW264.7 cells assessed as reduction in phosphorylated NF-kappaB to p65 relative expression at 6.25 to 25 uM pretreated with compound for 1 hr followed by LPS-induction and measured after 24 hrs by Western blot analysis; format: cell-based; details: dose 6.25-25 µM, time 25.0 hrs
[24] = test system: Mus musculus; assay: Antiinflammatory activity in LPS-induced acute lung injury BALB/c mouse model assessed as improvement in alveolar structure at 20 mg/kg, po administered for 3 days followed by LPS-induction for 1 hr and measured after 6 hrs by H and E staining based analysis; format: functional, organism-based; details: time 79.0 hrs
[25] = test system: Mus musculus; assay: Antiinflammatory activity in LPS-induced acute lung injury BALB/c mouse model assessed as reduction in W/D weight gain ratio in lung at 5 to 20 mg/kg, po administered for 3 days followed by LPS-induction for 1 hr and measured after 6 hrs; format: functional, organism-based; details: dose 5-20 mg/kg, time 79.0 hrs
[26] = test system: RAW264.7; assay: Anti-inflammatory activity in mouse RAW264.7 cells assessed as inhibition of LPS-induced COX-2 […] expression preincubated with compound for 1 hr followed by LPS stimulation and measured after 24 hrs by Western blot analysis; format: functional, cell-based; details: dose 6.25-25 µM, time 25.0 hrs
[27] = test system: Mus musculus; assay: Antiinflammatory activity in LPS-induced acute lung injury BALB/c mouse model assessed as reduction in NO production in BALF at 5 to 20 mg/kg, po administered for 3 days followed by LPS-induction for 1 hr and measured after 6 hrs by Griess reagent based analysis; format: functional, organism-based; details: dose 5-20 mg/kg, time 79.0 hrs
[28] = test system: Mus musculus; assay: Antiinflammatory activity in LPS-induced acute lung injury BALB/c mouse model assessed as reduction in lung edema at 20 mg/kg, po administered for 3 days followed by LPS-induction for 1 hr and measured after 6 hrs by H and E staining based analysis; format: functional, organism-based; details: time 79.0 hrs
[29] = test system: RAW264.7; assay: Antiinflammatory activity in mouse RAW264.7 cells assessed as reduction in LPS-induced TNF-alpha production preincubated with compound for 1 hr followed by LPS-induction and measured after 24 hrs by ELISA analysis relative to control; format: functional, cell-based
[30] = test system: RAW264.7; assay: Anti-inflammatory activity in mouse RAW264.7 cells assessed as inhibition of LPS-induced COX-2 […] expression at 25 uM preincubated with compound for 1 hr followed by LPS stimulation and measured after 24 hrs by Western blot analysis; format: functional, cell-based; details: time 25.0 hrs

Transcription factor p65 (Mus musculus), sequence (Q04207 whole entry): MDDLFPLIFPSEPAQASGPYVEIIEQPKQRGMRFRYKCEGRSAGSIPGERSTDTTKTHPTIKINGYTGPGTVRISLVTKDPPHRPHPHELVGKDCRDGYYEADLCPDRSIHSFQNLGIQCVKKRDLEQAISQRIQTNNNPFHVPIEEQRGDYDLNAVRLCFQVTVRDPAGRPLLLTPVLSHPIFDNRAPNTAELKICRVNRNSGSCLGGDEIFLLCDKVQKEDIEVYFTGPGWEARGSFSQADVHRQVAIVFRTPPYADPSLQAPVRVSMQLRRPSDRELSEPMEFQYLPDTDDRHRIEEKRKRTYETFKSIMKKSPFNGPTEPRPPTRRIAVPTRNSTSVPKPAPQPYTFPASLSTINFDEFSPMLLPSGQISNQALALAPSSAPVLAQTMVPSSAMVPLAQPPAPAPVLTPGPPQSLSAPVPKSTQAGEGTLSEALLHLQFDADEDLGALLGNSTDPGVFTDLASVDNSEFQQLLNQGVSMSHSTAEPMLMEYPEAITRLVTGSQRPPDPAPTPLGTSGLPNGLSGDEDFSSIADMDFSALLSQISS

COc1ccc([C@@H]2OC[C@H]3[C@@H]2CO[C@@H]3c2ccc(O[C@H]3O[C@H](COC(=O)c4cn(-c5ccc(Cl)cc5)nn4)[C@@H](O)[C@H](O)[C@H]3O)c(OC)c2)cc1OC
Activity [1]: Non-Toxic

COc1ccc([C@@H]2OC[C@H]3[C@@H]2CO[C@@H]3c2ccc(O[C@H]3O[C@H](COC(=O)[C@H](Cc4ccccc4)NC(=O)OC(C)(C)C)[C@@H](O)[C@H](O)[C@H]3O)c(OC)c2)cc1OC
Activity [2]: Active
Activity [3]: Dose-Dependent Effect
Activity [4]: Active
Activity [5]: Dose-Dependent Effect
Activity [6]: Active
Activity [7]: Dose-Dependent Effect
Activity [8]: Active
Activity [9]: inactive
inhibition [10]: Active
inhibition at 25 µM [11]: 91.8%
inhibition [12]: Active
Activity [13]: Active
Activity [14]: Active
Activity [15]: Active
inhibition [16]: Active
fold change (FC) [17]: 7.5
pIC50 [18]: 5.31
Activity [19]: Active
Activity [20]: Active
Activity [21]: Active
pIC50 [22]: 4.96
inhibition [23]: Active
Activity [24]: Active
Activity [25]: Active
Activity [26]: Dose-Dependent Effect
Activity [27]: Active
Activity [1]: Non-Toxic
Activity [28]: Active
pIC50 [29]: < 4.60
Activity [30]: Active

COc1ccc([C@H]2OC[C@@H]3[C@H]2CO[C@@H]3c2ccc(O[C@@H]3O[C@@H](COC(=O)c4nccc5ccccc45)[C@H](O)[C@@H](O)[C@@H]3O)c(OC)c2)cc1OC (stereo in doubt)
Activity [1]: Non-Toxic

COc1ccc([C@H]2OC[C@@H]3[C@H]2CO[C@@H]3c2ccc(O[C@@H]3O[C@@H](COC(=O)c4cc5ccccc5cn4)[C@H](O)[C@@H](O)[C@@H]3O)c(OC)c2)cc1OC (stereo in doubt)
Activity [1]: Non-Toxic

COc1ccc([C@@H]2OC[C@H]3[C@@H]2CO[C@@H]3c2ccc(O[C@H]3O[C@H](COC(=O)[C@H](Cc4c[nH]c5ccccc45)NC(=O)OC(C)(C)C)[C@@H](O)[C@H](O)[C@H]3O)c(OC)c2)cc1OC
Activity [1]: Non-Toxic

COc1ccc([C@@H]2OC[C@H]3[C@@H]2CO[C@@H]3c2ccc(O[C@H]3O[C@H](COC(=O)c4cn(-c5ccc(C)cc5)nn4)[C@@H](O)[C@H](O)[C@H]3O)c(OC)c2)cc1OC
Activity [1]: Non-Toxic

COc1ccc([C@H]2OC[C@@H]3[C@H]2CO[C@@H]3c2ccc(O[C@@H]3O[C@@H](COC(=O)c4cnc5ccccc5c4)[C@H](O)[C@@H](O)[C@@H]3O)c(OC)c2)cc1OC (stereo in doubt)
Activity [1]: Non-Toxic

COc1ccc([C@H]2OC[C@@H]3[C@H]2CO[C@@H]3c2ccc(O[C@@H]3O[C@@H](COC(=O)c4cccc5ncccc45)[C@H](O)[C@@H](O)[C@@H]3O)c(OC)c2)cc1OC (stereo in doubt)
Activity [1]: Non-Toxic
